This test deals with P388 leukemia ip, CD2F1 mice, survival T/C. The experiment in a line: NCI In Vivo Anticancer Drug Screen. Data for tumor model P388 Leukemia (intraperitoneal) in CD2F1 (CDF1) mice. The conditions noted are these: endpoint: median survival time, higher = longer survival. A digest of the protocol:
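Mice carrying the transplanted tumor received test compound or vehicle. Survival was recorded in each group, and the value is the treated-group measurement divided by that of the vehicle-treated control group.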

[1] abbreviates: dose: 100.0 mg/kg/injection, schedule: Q01DX009 (ip), vehicle: saline with Tween-80.
[2] abbreviates: dose: 200.0 mg/kg/injection, schedule: Q01DX009 (ip), vehicle: saline with Tween-80.
The mark [3] stands for this setting: dose: 50.0 mg/kg/injection, schedule: Q01DX005 (ip), vehicle: Klucel (hydroxypropylcellulose) (HPC).
Where [4] appears, read: dose: 100.0 mg/kg/injection, schedule: Q01DX005 (ip), vehicle: Klucel (hydroxypropylcellulose) (HPC).
Setting [5] is: dose: 200.0 mg/kg/injection, schedule: Q01DX005 (ip), vehicle: Klucel (hydroxypropylcellulose) (HPC).
[6] abbreviates: dose: 1.56 mg/kg/injection, schedule: Q01DX009 (ip), vehicle: water.
Where [7] appears, read: dose: 6.25 mg/kg/injection, schedule: Q01DX009 (ip), vehicle: water.
[8] abbreviates: dose: 12.5 mg/kg/injection, schedule: Q01DX009 (ip), vehicle: water.
Setting [9] is: dose: 50.0 mg/kg/injection, schedule: Q01DX009 (ip), vehicle: water.
Setting [10] is: dose: 50.0 mg/kg/injection, schedule: Q01DX009 (ip), vehicle: saline with Tween-80.
[11] abbreviates: dose: 60.0 mg/kg/injection, schedule: Q01DX005 (ip), vehicle: saline with Tween-80.
[12] abbreviates: dose: 100.0 mg/kg/injection, schedule: Q04DX003 (ip), vehicle: saline with Tween-80.
The mark [13] stands for this setting: dose: 120.0 mg/kg/injection, schedule: Q01DX005 (ip), vehicle: saline with Tween-80.
The mark [14] stands for this setting: dose: 240.0 mg/kg/injection, schedule: Q01DX005 (ip), vehicle: saline with Tween-80.

Several values for one entry are separate records, joined by “and”; a condition that tells them apart may be missing. Identical values can stand only once. Toxic doses and inconclusive results are not listed.

Turning to `COc1ccc(OC)c(/C=C/c2ccc3ccccc3n2)c1`, the T/C is 90 % of control under setting [1]; 90 % of control under setting [2]; 104 % of control (dose: 400.0 mg/kg/injection, schedule: Q01DX009 (ip), vehicle: saline with Tween-80).
In the case of `CC(=O)Oc1ccc(OC(C)=O)c2cc3c(cc12)C(=O)C(C)=C(C)C3=O`, the T/C was 89 % of control under setting [3], 97 % of control under setting [4] and 111 % of control under setting [5].
As to `COc1ccc2nc(NN=O)sc2c1`, the T/C reads like this: under setting [6], 92 % of control; (dose: 3.12 mg/kg/injection, schedule: Q01DX009 (ip), vehicle: water) 101 % of control and 103 % of control; under setting [7], 100 % of control and 92 % of control; under setting [8], 100 % of control and 101 % of control; (dose: 25.0 mg/kg/injection, schedule: Q01DX009 (ip), vehicle: water) 104 % of control and 97 % of control; under setting [9], 111 % of control.
With `CC1(C)CC(C)(C)C2(OC3=C([Se]2)C(C)(C)CC(C)(C)C3=O)C(=O)C1=O` (centres undefined), the T/C reads like this: under setting [10], 100 % of control; under setting [1], 118 % of control; under setting [2], 117 % of control.
Consider `COc1ccc(S(=O)(=O)N/N=C/C(=O)O)cc1`, for which the T/C runs as follows: (dose: 6.25 mg/kg/injection, schedule: Q01DX009 (ip), vehicle: other) 116 % of control; (dose: 12.5 mg/kg/injection, schedule: Q01DX005 (ip), vehicle: saline with Tween-80) 118 % of control; (dose: 25.0 mg/kg/injection, schedule: Q01DX009 (ip), vehicle: other) 162 % of control; (dose: 50.0 mg/kg/injection, schedule: Q01DX005 (ip), vehicle: distilled water + Tween-80) 154 % of control; (dose: 50.0 mg/kg/injection, schedule: Q01DX009 (ip), vehicle: other) 158 % of control and 159 % of control; (dose: 100.0 mg/kg/injection, schedule: Q01DX005 (ip), vehicle: distilled water + Tween-80) 182 % of control.
For the compound `COC(=O)C1C2CC3c4[nH]c5cc(OC)ccc5c4CCN3CC2CC(O)C1OC` (centres undefined), the T/C by setting is: under setting [3], 97 % of control; under setting [4], 97 % of control.
Consider `CN(C)c1ccc(/C=C/c2ccnc3ccc4ccccc4c23)cc1`, for which the T/C by setting is: under setting [10], 98 % of control; under setting [1], 100 % of control; under setting [2], 110 % of control.
Turning to `COc1cc2c(cc1OC)-c1cc3cc(OC)c(OC)cc3c(C)[n+]1CC2` (tested in a mixture with another compound), the T/C under setting [6] was 102 % of control; the T/C (dose: 3.13 mg/kg/injection, schedule: Q01DX009 (ip), vehicle: water) is 102 % of control; the T/C under setting [7] was 111 % of control; the T/C under setting [8] was 118 % of control; the T/C (dose: 14.8 mg/kg/injection, schedule: Q01DX009 (ip), vehicle: water) is 113 % of control; the T/C (dose: 22.0 mg/kg/injection, schedule: Q01DX009 (ip), vehicle: water) is 109 % of control. The T/C (dose: 33.0 mg/kg/injection, schedule: Q01DX009 (ip), vehicle: water) is 117 % of control; the T/C under setting [9] is 116 % of control; the T/C (dose: 75.0 mg/kg/injection, schedule: Q01DX009 (ip), vehicle: water) is 97 % of control.
In the case of `CCOC(=O)CC(CS(=O)CP(=O)(OCC)OCC)C(=O)OCC` (centres undefined), the T/C was 91 % of control (dose: 7.5 mg/kg/injection, schedule: Q01DX005 (ip), vehicle: saline with Tween-80); 92 % of control (dose: 15.0 mg/kg/injection, schedule: Q01DX005 (ip), vehicle: saline with Tween-80); 102 % of control (dose: 30.0 mg/kg/injection, schedule: Q01DX005 (ip), vehicle: saline with Tween-80); 102 % of control and 110 % of control under setting [11].
Turning to `N#C/C(=C\c1c[nH]c2ccccc12)C(N)=O`, the T/C reads like this: under setting [12], 100 % of control; (dose: 200.0 mg/kg/injection, schedule: Q04DX003 (ip), vehicle: saline with Tween-80) 100 % of control; (dose: 400.0 mg/kg/injection, schedule: Q04DX003 (ip), vehicle: saline with Tween-80) 100 % of control.
Consider `C[Se](=C(C(=O)c1ccccc1)C(=O)c1ccccc1)c1ccccc1` (centres undefined), for which the T/C is, setting by setting: (dose: 100.0 mg/kg/injection, schedule: Q04DX002 (ip), vehicle: saline) 99 % of control; (dose: 200.0 mg/kg/injection, schedule: Q04DX002 (ip), vehicle: saline) 100 % of control; (dose: 400.0 mg/kg/injection, schedule: Q04DX002 (ip), vehicle: saline) 98 % of control.
Turning to `CC(=NC(C)(C)C)N1CCCC1`, the T/C was 102 % of control (dose: 12.5 mg/kg/injection, schedule: Q01DX005 (ip), vehicle: saline); 102 % of control (dose: 25.0 mg/kg/injection, schedule: Q01DX005 (ip), vehicle: saline); 101 % of control (dose: 50.0 mg/kg/injection, schedule: Q01DX005 (ip), vehicle: saline); 95 % of control (dose: 100.0 mg/kg/injection, schedule: Q01DX005 (ip), vehicle: saline).
Turning to `CC(=O)/C(C=NC1CC(N=C/C(C(C)=O)=C(/C)O)CC(N=C/C(C(C)=O)=C(/C)O)C1)=C(/C)O` (centres undefined), the T/C by setting is: under setting [10], 101 % of control; under setting [1], 101 % of control; under setting [2], 93 % of control.
For the compound `O=C(O)CCCNC1=CC(=O)c2ccccc2C1=O`, the T/C reads like this: (dose: 25.0 mg/kg/injection, schedule: Q04DX003 (ip), vehicle: saline with Tween-80) 101 % of control; (dose: 50.0 mg/kg/injection, schedule: Q04DX003 (ip), vehicle: saline with Tween-80) 104 % of control; under setting [12], 102 % of control and 86 % of control.
Take `c1ccc(-c2nnc3nn4c(-c5ccccc5)cnnc4c3c2-c2ccccc2)cc1`: the T/C is 93 % of control under setting [3], 91 % of control under setting [4] and 90 % of control under setting [5].
Consider `COC(=N)C1=CC(C)(C)N(O)C1(C)C`, for which the T/C is 96 % of control (dose: 100.0 mg/kg/injection, schedule: Q01DX001 (ip), vehicle: saline); 102 % of control (dose: 200.0 mg/kg/injection, schedule: Q01DX001 (ip), vehicle: saline); 98 % of control (dose: 400.0 mg/kg/injection, schedule: Q01DX001 (ip), vehicle: saline).
On to `CC(C)(C)c1ccc(C(=O)NCSCC(NC(=O)CCC(N)C(=O)O)C(=O)NCC(=O)O)cc1` (centres undefined), for which the T/C runs as follows: under setting [11], 98 % of control; under setting [13], 104 % of control; under setting [14], 86 % of control.
`CN1CCC(c2ccccc2)=C(Br)C1`: the T/C runs as follows: (dose: 60.0 mg/kg/injection, schedule: Q01DX005 (ip), vehicle: saline) 102 % of control; (dose: 120.0 mg/kg/injection, schedule: Q01DX005 (ip), vehicle: saline) 98 % of control.
In the case of `COc1ccc(NC(=O)CCC(=O)C(C)C(=O)c2ccccc2)cc1` (centres undefined), the T/C runs as follows: under setting [11], 109 % of control; under setting [13], 114 % of control; under setting [14], 120 % of control.

The values above are taken from PubChem BioAssay AID330 (DTP/NCI, 2004).
